What all share (test): biochemical
Common to all, as to type: binding

For one experiment, the target named is T1, Ls-AChBP (Lymnaea stagnalis, UniProt P58154).
T1 construct: made in house

For a further experiment, the target named is T2, Ac-AChBP (Aplysia californica, UniProt Q8WSF8).
T2 construct: made in house
Particulars: SEM.

The target in another experiment is T3, Q55K Ls-AChBP mutant (Lymnaea stagnalis, UniProt P58154, Q74K).
T3 construct: made in house; Top10 E. coli is named only for plasmid propagation

Read-outs that look alike come from different tables or passages of the source. Bridge positions count the residues as written; N and C are the ends. Peptide text beside a SMILES is read from it.

Usually IC50 stands for the point on the concentration scale where inhibition reaches its midpoint. As to `CC[C@H](C)[C@@H]1NC(=O)[C@H](CC(N)=O)NC(=O)[C@@H]2CCCN2C(=O)[C@H](CC(N)=O)NC(=O)[C@H](CC(=O)O)NC(=O)[C@H](C(C)C)NC(=O)[C@H](CCCNC(=N)N)NC(=O)[C@@H]2CSSC[C@H](NC(=O)CNC(=O)[C@@H](N)CO)C(=O)N[C@@H](CSSC[C@@H](C(N)=O)NC1=O)C(=O)N[C@@H](CO)C(=O)N[C@@H](CC(N)=O)C(=O)N1CCC[C@H]1C(=O)N[C@@H](C)C(=O)N2` [N12D-LsIA] (H-SGCCSNPACRVDNPNIC-NH2; disulfide 3-9, 4-17), the IC50 is above 10000 nM against Ls-AChBP and 5550 nM on Ac-AChBP.

Take `CC[C@H](C)[C@@H]1NC(=O)[C@H](CC(N)=O)NC(=O)[C@@H]2CCCN2C(=O)[C@H](CC(N)=O)NC(=O)[C@H](CC(C)C)NC(=O)[C@H](C(C)C)NC(=O)[C@H](CCCNC(=N)N)NC(=O)[C@@H]2CSSC[C@H](NC(=O)CNC(=O)[C@@H](N)CO)C(=O)N[C@@H](CSSC[C@@H](C(N)=O)NC1=O)C(=O)N[C@@H](CO)C(=O)N[C@@H](CC(N)=O)C(=O)N1CCC[C@H]1C(=O)N[C@@H](C)C(=O)N2` [N12L-LsIA] (H-SGCCSNPACRVLNPNIC-NH2; disulfide 3-9, 4-17): the IC50 is above 10000 nM against Ls-AChBP and 61 ± 7 nM against Ac-AChBP.

As for `CC[C@H](C)[C@@H]1NC(=O)[C@H](CC(N)=O)NC(=O)[C@@H]2CCCN2C(=O)[C@H](CC(N)=O)NC(=O)[C@H](CCC(N)=O)NC(=O)[C@H](C(C)C)NC(=O)[C@H](CCCNC(=N)N)NC(=O)[C@@H]2CSSC[C@H](NC(=O)CNC(=O)[C@@H](N)CO)C(=O)N[C@@H](CSSC[C@@H](C(N)=O)NC1=O)C(=O)N[C@@H](CO)C(=O)N[C@@H](CC(N)=O)C(=O)N1CCC[C@H]1C(=O)N[C@@H](C)C(=O)N2` [N12Q-LsIA] (H-SGCCSNPACRVQNPNIC-NH2; disulfide 3-9, 4-17), the figures for the IC50 against Ls-AChBP (SEM) and at Ac-AChBP were 2440 ± 750 nM and 55.2 ± 0.9 nM, respectively.

In the case of `CC[C@H](C)[C@@H]1NC(=O)[C@H](CC(N)=O)NC(=O)[C@@H]2CCCN2C(=O)[C@H](CC(N)=O)NC(=O)[C@H](CC(N)=O)NC(=O)[C@H](C(C)C)NC(=O)[C@H](CC(=O)O)NC(=O)[C@@H]2CSSC[C@H](NC(=O)CNC(=O)[C@@H](N)CO)C(=O)N[C@@H](CSSC[C@@H](C(N)=O)NC1=O)C(=O)N[C@@H](CO)C(=O)N[C@@H](CC(N)=O)C(=O)N1CCC[C@H]1C(=O)N[C@@H](C)C(=O)N2` [R10D-LsIA] (H-SGCCSNPACDVNNPNIC-NH2; disulfide 3-9, 4-17), the results for the IC50 at Ls-AChBP, against Ac-AChBP and against Q55K Ls-AChBP mutant were above 10000 nM, 8370 nM and above 10000 nM, respectively. Also, on Ls-AChBP, the “activity at Ls-AChBP (in words)” value is “inactive”.

Consider `CC[C@H](C)[C@@H]1NC(=O)[C@H](CC(N)=O)NC(=O)[C@@H]2CCCN2C(=O)[C@H](CC(N)=O)NC(=O)[C@H](CC(N)=O)NC(=O)[C@H](C(C)C)NC(=O)[C@H](Cc2ccccc2)NC(=O)[C@@H]2CSSC[C@H](NC(=O)CNC(=O)[C@@H](N)CO)C(=O)N[C@@H](CSSC[C@@H](C(N)=O)NC1=O)C(=O)N[C@@H](CO)C(=O)N[C@@H](CC(N)=O)C(=O)N1CCC[C@H]1C(=O)N[C@@H](C)C(=O)N2` [R10F-LsIA] (H-SGCCSNPACFVNNPNIC-NH2; disulfide 3-9, 4-17), for which the IC50 on Ls-AChBP (SEM) turned out to be 110 ± 20 nM; on Ac-AChBP it was 2.2 ± 0.05 nM; against Q55K Ls-AChBP mutant (SEM), 800 ± 260 nM.

For the compound `CC[C@H](C)[C@@H]1NC(=O)[C@H](CC(N)=O)NC(=O)[C@@H]2CCCN2C(=O)[C@H](CC(N)=O)NC(=O)[C@H](CC(N)=O)NC(=O)[C@H](C(C)C)NC(=O)[C@H](CCSC)NC(=O)[C@@H]2CSSC[C@H](NC(=O)CNC(=O)[C@@H](N)CO)C(=O)N[C@@H](CSSC[C@@H](C(N)=O)NC1=O)C(=O)N[C@@H](CO)C(=O)N[C@@H](CC(N)=O)C(=O)N1CCC[C@H]1C(=O)N[C@@H](C)C(=O)N2` [R10M-LsIA] (H-SGCCSNPACMVNNPNIC-NH2; disulfide 3-9, 4-17), the results for the IC50 against Ls-AChBP (SEM), on Ac-AChBP and at Q55K Ls-AChBP mutant (SEM) were 500 ± 160 nM, 1.88 ± 0.65 nM and 7100 ± 2500 nM, respectively.

Values taken from paper PMC5374441 (Scientific Reports, 2017).
